The values that follow are results of earlier work, collected in patent US11154558B2, “Prevention of atherosclerotic events with direct factor Xa inhibitors” (Adams Pharmaceuticals LLC, priority 2016, dated 2021).

Read-outs that look alike come from different tables or passages of the source.

The target of series [1] is hERG (Homo sapiens, UniProt Q12809).
For series [2] the following is noted: usual dose about 15 mg to about 20 mg per day.
For series [3], the system named is platelet aggregation.
For series [4], the system named is atherosclerotic plaques in ApoE^−/−mice.
The conditions of series [5]: human, in vivo.
The conditions of series [6]: human, in vivo. The source holds these as a separate data set.
Setting [7] is: ApoE−/− mice treated with rivaroxaban.

Chain of hERG (Q12809 whole entry): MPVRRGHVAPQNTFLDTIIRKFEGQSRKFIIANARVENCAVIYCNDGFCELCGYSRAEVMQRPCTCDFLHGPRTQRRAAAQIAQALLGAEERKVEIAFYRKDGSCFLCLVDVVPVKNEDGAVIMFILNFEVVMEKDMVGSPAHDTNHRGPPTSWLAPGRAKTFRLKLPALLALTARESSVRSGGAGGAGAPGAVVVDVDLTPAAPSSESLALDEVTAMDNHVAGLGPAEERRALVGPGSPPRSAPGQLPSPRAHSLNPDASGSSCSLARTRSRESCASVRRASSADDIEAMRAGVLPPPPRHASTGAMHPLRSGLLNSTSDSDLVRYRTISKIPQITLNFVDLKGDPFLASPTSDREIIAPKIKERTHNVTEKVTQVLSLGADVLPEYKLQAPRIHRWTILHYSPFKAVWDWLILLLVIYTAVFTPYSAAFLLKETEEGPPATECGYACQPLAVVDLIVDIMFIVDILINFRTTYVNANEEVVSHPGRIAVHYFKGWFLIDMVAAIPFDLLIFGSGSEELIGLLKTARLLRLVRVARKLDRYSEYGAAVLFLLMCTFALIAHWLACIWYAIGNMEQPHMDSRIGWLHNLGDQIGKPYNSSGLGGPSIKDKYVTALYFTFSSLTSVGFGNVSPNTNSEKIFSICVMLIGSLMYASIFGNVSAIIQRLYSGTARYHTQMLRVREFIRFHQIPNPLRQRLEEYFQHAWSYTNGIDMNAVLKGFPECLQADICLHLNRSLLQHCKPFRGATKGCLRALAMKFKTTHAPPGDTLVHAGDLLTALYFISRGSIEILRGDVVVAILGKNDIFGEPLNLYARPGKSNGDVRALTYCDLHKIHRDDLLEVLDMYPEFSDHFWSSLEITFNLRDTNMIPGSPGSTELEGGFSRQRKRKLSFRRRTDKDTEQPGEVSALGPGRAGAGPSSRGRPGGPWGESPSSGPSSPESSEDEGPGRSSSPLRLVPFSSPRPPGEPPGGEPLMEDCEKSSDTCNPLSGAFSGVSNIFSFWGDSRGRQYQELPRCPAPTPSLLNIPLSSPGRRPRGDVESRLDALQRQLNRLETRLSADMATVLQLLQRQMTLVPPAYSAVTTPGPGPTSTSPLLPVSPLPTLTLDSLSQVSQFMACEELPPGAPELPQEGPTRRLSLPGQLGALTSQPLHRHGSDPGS

Regarding `COc1ccc(NC(=O)c2ccc(C(=N)N(C)C)cc2)c(C(=O)Nc2ccc(Cl)cn2)c1` [Betrixaban], the hERG affinity entry in series [1] is listed as “low hERG affinity”.

As for `O=C(NC[C@H]1CN(c2ccc(N3CCOCC3=O)cc2)C(=O)O1)c1ccc(Cl)s1` [rivaroxaban], the “risk of a major bleeding event” value in series [2] (one reported study) was 4.3%. For the same molecule, in series [2] (second study), the “risk of a major bleeding event” value is 1.7%. In series [3], the “direct effect on platelet aggregation” value is on record as “no direct effect on platelet aggregation”. In addition, in series [4] (setting [7]), the “accumulation of macrophages in plaques” value is reported as “reduced accumulation”; the “atherosclerotic plaque stability and plaque progression” value was “stabilized atherosclerotic plaques and attenuated plaque progression”; the “collagen contents in atherosclerotic plaques” value is “increased collagen contents”; the “expression of matrix metallopeptidase-9 (MMP-9)” value is recorded as “decreased expression”. In addition, the “lipid deposition in plaques” value in series [4] (setting [7]) is given as “decreased lipid deposition”. Also, the “plasma levels of FXa or thrombin antithrombin” value in series [4] (ApoE−/− mice, administration of rivaroxaban) was “did not change”.

`COc1ccc(-n2nc(C(N)=O)c3c2C(=O)N(c2ccc(N4CCCCC4=O)cc2)CC3)cc1` [apixaban]: the “direct effect on platelet aggregation” value in series [3] is “no direct effect on platelet aggregation”. Further, in series [5], the “patients affected by bleeding (major bleeding events)” value is on record as 1.7%. Also, the “prevalence of major bleeding versus placebo” value in series [6] was “no increased prevalence of major bleeding”.
